# From patent US12723063B2, “GIPR-agonist compounds” (Eli Lilly and Company, priority 2019, dated 2026)
# pKi: −log10 of the molar value. *1 amine or outer side, *2 acyl side, *3 side chain or, on linkers, in order; H or OH if unused. Where a SMILES comes first, the peptide text is derived from it. Side-chain parts run from the residue outwards. [ ]: non-standard residue; d: D form. The star is where a group is joined. C20 diacid = O=C(O)CCCCCCCCCCCCCCCCCCC(=O)*; γGlu = O=C(O)[C@H](CCC(=O)[*:2])N[*:1]; 4Pal = N[C@@H](Cc1ccncc1)C(=O)O; αMeL = CC(C)C[C@](C)(N)C(=O)O; AEEA = NCCOCCOCC(=O)O; Aib = CC(C)(N)C(=O)O
# Target: T1, human GcgR (Homo sapiens, UniProt P47871)
# T1 construct: expressed in transfected cells; crude membranes
# T1 sequence (P47871 26-477): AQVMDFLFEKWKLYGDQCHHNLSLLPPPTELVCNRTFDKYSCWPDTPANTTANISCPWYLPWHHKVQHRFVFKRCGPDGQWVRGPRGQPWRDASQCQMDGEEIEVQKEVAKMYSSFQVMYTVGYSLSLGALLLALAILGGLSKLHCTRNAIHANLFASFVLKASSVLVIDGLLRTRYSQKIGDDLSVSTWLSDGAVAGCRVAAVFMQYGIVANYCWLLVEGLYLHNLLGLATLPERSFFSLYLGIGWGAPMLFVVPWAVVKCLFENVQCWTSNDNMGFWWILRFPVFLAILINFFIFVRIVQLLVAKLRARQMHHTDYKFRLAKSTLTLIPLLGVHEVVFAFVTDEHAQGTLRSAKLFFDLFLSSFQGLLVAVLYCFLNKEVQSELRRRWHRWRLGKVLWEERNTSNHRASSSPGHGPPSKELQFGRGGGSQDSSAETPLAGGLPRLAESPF
# Experiment: [125I]-Glucagon binding, SPA with WGA beads, 0.1% bacitracin
# Conditions: geometric mean, read-out: hGcgR Ki
# How it was run: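 SPA competition binding with WGA beads on crude membranes from HEK293 cells stably expressing hGcgR. Buffer: 25 mM HEPES pH 7.4, 2.5 mM CaCl2, 1 mM MgCl2, 0.1% bacitracin, 0.003% Tween-20; 10-point 3-fold dilutions, NSB with 1 μM Gcg.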
smiles,measurement,value
CC[C@H](C)[C@H](NC(=O)[C@H](Cc1ccccc1)NC(=O)[C@@H](NC(=O)CNC(=O)[C@H](CCC(=O)O)NC(=O)C(C)(C)NC(=O)[C@@H](N)Cc1ccc(O)cc1)[C@@H](C)O)C(=O)N[C@@H](CO)C(=O)N[C@@H](CC(=O)O)C(=O)N[C@@H](Cc1ccc(O)cc1)C(=O)N[C@@H](CO)C(=O)N[C@H](C(=O)N[C@@](C)(CC(C)C)C(=O)N[C@@H](CC(C)C)C(=O)N[C@@H](CC(=O)O)C(=O)N[C@@H](CCCCN)C(=O)N[C@@H](CCCCNC(=O)COCCOCCNC(=O)COCCOCCNC(=O)CC[C@H](NC(=O)CCCCCCCCCCCCCCCCCCC(=O)O)C(=O)O)C(=O)N[C@@H](Cc1c[nH]cn1)C(=O)N[C@@H](CCC(N)=O)C(=O)NC(C)(C)C(=O)N[C@@H](CC(=O)O)C(=O)N[C@@H](Cc1ccccc1)C(=O)N[C@H](C(=O)N[C@@H](CCC(=O)O)C(=O)N[C@@H](Cc1ccc(O)cc1)C(=O)N[C@@H](CC(C)C)C(=O)N[C@@H](CC(C)C)C(=O)N[C@@H](CCC(=O)O)C(=O)NCC(=O)NCC(=O)N1CCC[C@H]1C(=O)N[C@@H](CO)C(=O)N[C@@H](CO)C(=O)NCC(=O)N[C@@H](C)C(=O)N1CCC[C@H]1C(=O)N1CCC[C@H]1C(=O)N1CCC[C@H]1C(=O)N[C@@H](CO)C(N)=O)C(C)C)[C@@H](C)CC [Example 69] (H-Y[Aib]EGTFISDYSI[αMeL]LDKK([AEEA-AEEA-γGlu-C20 diacid])HQ[Aib]DFVEYLLEGGPSSGAPPPS-NH2),pKi,6.94
CC[C@H](C)[C@H](NC(=O)[C@H](Cc1ccccc1)NC(=O)[C@@H](NC(=O)CNC(=O)[C@H](CCC(=O)O)NC(=O)C(C)(C)NC(=O)[C@@H](N)Cc1ccc(O)cc1)[C@@H](C)O)C(=O)N[C@@H](CO)C(=O)N[C@@H](CC(=O)O)C(=O)N[C@@H](Cc1ccc(O)cc1)C(=O)N[C@@H](CO)C(=O)N[C@H](C(=O)N[C@@](C)(CC(C)C)C(=O)N[C@@H](CC(C)C)C(=O)N[C@@H](CC(=O)O)C(=O)N[C@@H](CCCCN)C(=O)N[C@@H](CCCCNC(=O)COCCOCCNC(=O)COCCOCCNC(=O)CC[C@H](NC(=O)CCCCCCCCCCCCCCCCCCC(=O)O)C(=O)O)C(=O)N[C@@H](Cc1c[nH]cn1)C(=O)N[C@@H](CCC(N)=O)C(=O)NC(C)(C)C(=O)N[C@@H](CC(=O)O)C(=O)N[C@@H](Cc1ccccc1)C(=O)N[C@H](C(=O)N[C@@H](CCC(=O)O)C(=O)N[C@@H](Cc1ccncc1)C(=O)N[C@@H](CC(C)C)C(=O)N[C@@H](CC(C)C)C(=O)N[C@@H](C)C(=O)N[C@H](C(=O)NCC(=O)N1CCC[C@H]1C(=O)N[C@@H](CO)C(=O)N[C@@H](CO)C(=O)NCC(=O)N[C@@H](C)C(=O)N1CCC[C@H]1C(=O)N1CCC[C@H]1C(=O)N1CCC[C@H]1C(=O)N[C@@H](CO)C(N)=O)[C@@H](C)O)C(C)C)[C@@H](C)CC [Example 70] (H-Y[Aib]EGTFISDYSI[αMeL]LDKK([AEEA-AEEA-γGlu-C20 diacid])HQ[Aib]DFVE[4Pal]LLATGPSSGAPPPS-NH2),pKi,6.07
CC[C@H](C)[C@H](NC(=O)[C@H](Cc1ccccc1)NC(=O)[C@@H](NC(=O)CNC(=O)[C@H](CCC(=O)O)NC(=O)C(C)(C)NC(=O)[C@@H](N)Cc1ccc(O)cc1)[C@@H](C)O)C(=O)N[C@@H](CO)C(=O)N[C@@H](CC(=O)O)C(=O)N[C@@H](Cc1ccc(O)cc1)C(=O)N[C@@H](CO)C(=O)N[C@H](C(=O)N[C@@](C)(CC(C)C)C(=O)N[C@@H](CC(C)C)C(=O)N[C@@H](CC(=O)O)C(=O)N[C@@H](CCCCN)C(=O)N[C@@H](CCCCNC(=O)COCCOCCNC(=O)COCCOCCNC(=O)CC[C@H](NC(=O)CCCCCCCCCCCCCCCCCCC(=O)O)C(=O)O)C(=O)N[C@@H](Cc1c[nH]cn1)C(=O)N[C@@H](CCC(N)=O)C(=O)NC(C)(C)C(=O)N[C@@H](CC(=O)O)C(=O)N[C@@H](Cc1ccccc1)C(=O)N[C@H](C(=O)N[C@@H](CCC(=O)O)C(=O)N[C@@H](Cc1c[nH]c2ccccc12)C(=O)N[C@@H](CC(C)C)C(=O)N[C@@H](CC(C)C)C(=O)N[C@@H](CCC(=O)O)C(=O)N[C@H](C(=O)NCC(=O)N1CCC[C@H]1C(=O)N[C@@H](CO)C(=O)N[C@@H](CO)C(=O)NCC(=O)N[C@@H](C)C(=O)N1CCC[C@H]1C(=O)N1CCC[C@H]1C(=O)N1CCC[C@H]1C(=O)N[C@@H](CO)C(N)=O)[C@@H](C)O)C(C)C)[C@@H](C)CC [Example 71] (H-Y[Aib]EGTFISDYSI[αMeL]LDKK([AEEA-AEEA-γGlu-C20 diacid])HQ[Aib]DFVEWLLETGPSSGAPPPS-NH2),pKi,6.99
CC[C@H](C)[C@H](NC(=O)[C@H](CC(C)C)NC(=O)[C@@H](NC(=O)CNC(=O)[C@H](CCC(=O)O)NC(=O)C(C)(C)NC(=O)[C@@H](N)Cc1ccc(O)cc1)[C@@H](C)O)C(=O)N[C@@H](CO)C(=O)N[C@@H](CC(=O)O)C(=O)N[C@@H](Cc1ccc(O)cc1)C(=O)N[C@@H](CO)C(=O)N[C@H](C(=O)N[C@@](C)(CC(C)C)C(=O)N[C@@H](CC(C)C)C(=O)N[C@@H](CC(=O)O)C(=O)N[C@@H](CCCCN)C(=O)N[C@@H](CCCCNC(=O)COCCOCCNC(=O)COCCOCCNC(=O)CC[C@H](NC(=O)CCCCCCCCCCCCCCCCCCC(=O)O)C(=O)O)C(=O)N[C@@H](Cc1c[nH]cn1)C(=O)N[C@@H](CCC(N)=O)C(=O)NC(C)(C)C(=O)N[C@@H](CCC(=O)O)C(=O)N[C@@H](Cc1ccccc1)C(=O)N[C@H](C(=O)N[C@@H](CCC(=O)O)C(=O)N[C@@H](Cc1ccc(O)cc1)C(=O)N[C@@H](CC(C)C)C(=O)N[C@@H](CC(C)C)C(=O)N[C@@H](CCC(=O)O)C(=O)N[C@H](C(=O)NCC(=O)N1CCC[C@H]1C(=O)N[C@@H](CO)C(=O)N[C@@H](CO)C(=O)NCC(=O)N[C@@H](C)C(=O)N1CCC[C@H]1C(=O)N1CCC[C@H]1C(=O)N1CCC[C@H]1C(=O)N[C@@H](CO)C(N)=O)[C@@H](C)O)C(C)C)[C@@H](C)CC [Example 72] (H-Y[Aib]EGTLISDYSI[αMeL]LDKK([AEEA-AEEA-γGlu-C20 diacid])HQ[Aib]EFVEYLLETGPSSGAPPPS-NH2),pKi,6.08
